From patent US12291504B2 (University of Pittsburgh—Of the Commonwealth System of …, priority 2018, dated 2025)
Where two headings read alike, the source gives them in different places.

Key:
Set-up in all cases: Wild-type and mutant SULT1A3 coding regions were inserted into a pGEX-6P expression vector; N-His/GST/MBP triple-tag (N, cleaved yes); made in house; host or cells: E. coli BL21(DE3)
SULT1A3 [1] = biological target: T1, SULT1A3 (Homo sapiens, UniProt P0DMM9); assay: Equilibrium binding studies, SULT1A3 intrinsic fluorescence titration
Method: 4-Tam binding affinities were determined in the absence and presence of saturating PAP. Binding was monitored via ligand-induced changes in SULT1A3 intrinsic florescence (λex=290 nm, λem=340 nm). Fluorescence intensities are normalized relative to [4-Tam]=0. Each data-point is the average of two independent determinations. Conditions: SULT (150 nM, active sites), PAP (0 or 0.50 mM), KPO4 (50 mM), pH 7.5, 25±2° C. The line through the data represents the least-squares best fit to a model that assumes a binding stoichiometry of one 4-Tam per subunit.
Equilibrium Binding Studies. In all cases, ligand binding to SULT1A3 was monitored via changes in the intrinsic fluorescence of the enzyme (λex=290 nm, λem=340 nm). Conditions: SULT (50 nM, active sites), KPO4 (50 mM), pH 7.5, 25±2° C. Titrations were performed in triplicate. Data were averaged and least-squares fit using a model that assumes a single binding site per monomer (29-31). Ligand concentration was varied from 0.10-40×Kd.
As is seen in Eq. 6, Kiso and kcat ratios approach equivalence as Kiso becomes >>1. To assess the extent to which this equivalence holds for SULT1A3, Kiso values were determined as described previously (29-33). In short—As nucleotide binds and the cap closes, a pore forms at the acceptor-binding site. The affinity of an acceptor that is too large to pass through the pore is diminished by the presence of nucleotide, which fosters cap closure. At saturating nucleotide, the apparent affinity, Kapp, of such acceptors for the fully cap-closed enzyme is given by Equation 7 (29-33), where Kd is the affinity for the cap-open (nucleotide-free) form of the enzyme. Kapp=Kd×(1+Kiso) (7) Kapp and Kd were obtained by fitting titrations that monitor changes in SULT1A3 intrinsic fluorescence as a function of the concentration of 4-hydroxytamoxifen, a large acceptor (29) (see, FIG. 2). Titrations were performed at 0 and saturating PAP (0.50 mM, 17×Kd).

SULT1A3 [2] = biological target: T1, SULT1A3; assay: Pre-steady state binding of PAP to SULT1A3 (stopped-flow fluorescence)
Method: The effect of CMP8 on PAP binding to SULT1A3 was monitored using a stopped-flow spectrofluorimeter (λex=290 nm, λem≥330 nm (cutoff filter)). […] Each kobs value was determined in triplicate and the averaged values are shown. kon and koff are given, respectively, by the slopes and intercepts obtained from linear least-squares fitting of the kobs vs [PAP] plots.
(§1) Pre-Steady State Binding Studies. The pre-steady state binding of PAP to SULT1A3 was monitored via ligand-induced enzyme fluorescence changes in SULT1A3 using an Applied Photophysics SX20 stopped-flow spectrofluorimeter (32). […] All reactions were pseudo first order in [PAP]. The observed rate constant (kobs) at a given [PAP] was taken as the average of three independent progress curves each obtained from a single-exponential fit of 6-9 averaged, binding progress curves. The rate constants, kon and koff, were obtained from the slopes and intercepts predicted by linear least-squares analysis of four-points kobs vs [PAP] plots.
Given that CMP8 interacts with the SULT1A3 cap, it was reasoned it might inhibit by stabilizing the cap-closed form(s) of the enzyme. To test this hypothesis, the microscopic rate constants for nucleotide binding and release were determined in the presence and absence of saturating CMP8. The binding reactions were monitored via intrinsic fluorescence changes associated with ligand binding (30-32) (see, Methods). The resulting kobs vs [PAP] plots are presented in FIG. 4. kon and koff are obtained, respectively, from the slopes and intercepts of the plots (30,31), see Table C. […] Thus, CMP8 does indeed slow nucleotide release by increasing Kiso and thus stabilizing the closed form of the cap.
as §1, with “(29).” for “(32).”

SULT1A3 [3] = biological target: T1, SULT1A3; assay: SULT1A3 inhibition studies, 1-HP initial-rate fluorescence assay; type: biochemical; conditions: Ki could not be determined
Method: The initial rates of SULT catalyzed 1-HP sulfonation are plotted as a function of inhibitor concentration, and are normalized relative to [inhibitor]=0. Enzyme activity was monitored by the sulfonation dependent change in 1-HP fluorescence (λex=325 nm, λem=370 nm). Less than 5% of the concentration-limiting substrate converted at the reaction endpoint was consumed during initial-rate measurements. Each point is the average of three independent determinations. Conditions: SULT (20 nM, active sites), PAPS (0.50 mM, 17×Km), 1-HP (5.0 μM, 61×Km), KPO4 (50 mM), pH 7.5, 25±2° C.
(§2) Initial-Rate Studies. Initial-rate parameters for the labeled or mutant SULT1A3 constructs were determined using a previously described 1-HP assay (25). Briefly, reactions were initiated by addition of PAPS (0.50 mM, 17×Km) to a solution containing enzyme (20 nM, active sites), 1-HP (2.0 μM, ˜24×Km), and KPO4 (50 mM), pH 7.5, 25±2° C. Reactions were monitored via fluorescence change associated with the conversion of 1-HP to 1-HP-S (λex=325 nm, λem=370 nm). Keq for the 1-HP sulfonation reaction is −250. Given the reaction conditions outlined above, ≥99% of 1-HP is converted to 1-HP-S, and ˜0.4% of PAPS is converted to PAP at equilibrium. […] Reaction progress curves were analyzed to obtain initial-rate parameters as described previously (26,27).
Inhibition studies. Inhibition parameters were determined under conditions identical to those described above (see, Initial-Rate Studies) except that [1-HP] was increased to 5.0 μM (˜61×Km) and inhibitor concentration was varied between 0.20-20×Ki. Ki was obtained using a least-squares fit to the following partial inhibition equation (25,28): v=kcat·(Ki+(1/kcat inh)·[I])/(Ki+[I]), where kcat inh is enzyme turnover at saturating substrates and allosteric inhibitor.
as §2, with “(47).” for “(25).”, “˜250.” for “−250.”, “(48,49).” for “(26,27).”
Inhibition studies. Inhibition parameters were determined under conditions identical to those described above (see, Initial-Rate Studies) except that [1-HP] was increased to 5.0 μM (˜61×Km) and inhibitor concentration was varied between 0.20-20×Ki. Ki was obtained using a least-squares fit to the following partial inhibition equation (47,50): V/Vax=(Ki+α·[I])/(Ki+[I]), where α is percentage of enzyme turnover remaining at saturating substrates and allosteric inhibitor.

[4] = saturating CMP8 (1.7 μM, 50×Kd)
[5] = read-out: Kd, determined by fluorescence titration

T1 sequence (P0DMM9 whole entry): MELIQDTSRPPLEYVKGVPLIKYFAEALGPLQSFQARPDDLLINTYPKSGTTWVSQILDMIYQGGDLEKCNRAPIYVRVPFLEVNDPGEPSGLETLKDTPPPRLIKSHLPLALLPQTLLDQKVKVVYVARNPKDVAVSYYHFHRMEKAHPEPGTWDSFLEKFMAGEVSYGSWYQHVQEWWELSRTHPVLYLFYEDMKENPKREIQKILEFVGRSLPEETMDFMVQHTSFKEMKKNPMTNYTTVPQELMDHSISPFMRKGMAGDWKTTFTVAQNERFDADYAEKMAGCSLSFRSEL

4-Hydroxytamoxifen [Compound 4-Tam, reference compound]
Kd (SULT1A3 [1]; saturating PAP 0.50 mM, SULT 150 nM, read-out: Kd (+PAP)): 5400 nM

Nc1ncnc2c1ncn2[C@@H]1O[C@H](COP(=O)(O)O)[C@@H](OP(=O)(O)O)[C@H]1O [PAP]
koff (s^−1), (−) CMP8 (SULT1A3 [2]; nucleotide binding to SULT1A3 without CMP8): 2.7 (0.1) s^−1 | kon (μM^−1s^−1), (−) CMP8 (SULT1A3 [2]; nucleotide binding to SULT1A3 without CMP8, parentheses standard error): 6.6 (0.2)^a μM^−1s^−1 | koff (s^−1), (+) CMP8 (SULT1A3 [2]; [4]): 1.1 (0.1) s^−1 | kon (μM^−1s^−1), (+) CMP8 (SULT1A3 [2]; [4]): 6.3 (0.3) μM^−1s^−1

CC(C)CCc1ccc2cc(CO)ccc2n1 [Compound 2]
Kd (SULT1A3 [1]; [5]): 87 nM | inhibition of SULT1A3 (in words) (SULT1A3 [3]): do not inhibit

O=S(=O)(O)Oc1ccc2ccc3cccc4ccc1c2c34 [Compound 1-HP-S, reference compound]
Kd (SULT1A3 [1]; read-out: Kd, affinity of 1-HP-S for SULT1A3): 240000 ± 30000 nM

CC(C)c1ccc2cc(CO)ccc2n1 [Compound 1, (2-Isopropylquinolin-6-yl)methanol]
Kd (SULT1A3 [1]; [5]): 160 nM | inhibition of SULT1A3 (in words) (SULT1A3 [3]): do not inhibit
